In paper PMC8280143, “A novel dephosphorylation targeting chimera selectively promoting tau removal in tauopathies” (Signal Transduction and Targeted Therapy, 2021):
Entries after “also recorded” stand apart in the source; their conditions may differ.

Experiments:
[1] = system: neurons; experiment: Neuron penetrability in vivo; set-up: species or system mouse; details: Supplementary Fig. S1a; 10 mM FITC-labeled or unlabeled-DEPTAC, C57BL/6 mice
Protocol: (§1) For 2-month male C57BL/6 mice, 10 mM FITC-labeled or unlabeled-DEPTAC were directly injected through the tail vein or lateral ventricle for the evaluation of BBB-penetrability. For 9-month 3×Tg AD mice or Tau368 (20–30 g body weight), unlabeled-DEPTAC (5 mM, 1 μL for each time) was delivered for once into the lateral ventricle through direct stereotaxic injection, or repeatedly administrated through guiding cannulas (RWD, Shenzhen, China) implanted into the lateral ventricle once every 3 days for a consecutive month to test its dephosphorylation efficiency. Mice were restricted in a custom designed device and stayed awake during drug administration, and sacrificed at 24 h post the single or last DEPTAC administration.

[2] = system: brain-blood barrier (BBB); experiment: Brain-blood barrier penetration after tail vein delivery; format: in vivo; details: delivered through mouse tail vein; 10 mM; 2-month male C57BL/6 mice
Protocol: as §1

[3] = system: HEK293(hTau) cells; experiment: CCK8 cell viability assay; format: cell-based, human; details: to 200 μM, 24 h; normalized to 0-μM group; F(4, 25) = 1.47, P = 0.24
Protocol: HEK293 cells with stable expression of wild-type full-length human tau (term as HEK293(hTau) cells), were cultured in DMEM (Hyclone, SH30022.01) containing 10% fetal bovine serum (Biological Industries, 04–001-1ACS) and […] G418 (Thermo Fisher Scientific, 10,131,027) under 5% CO2, 37 °C.
HEK293(hTau) cells were administrated with increasing concentration of DEPTAC for 24 h. About 5000 cells were dispensed into each well of a 96-well plate pre-incubated in a humidified incubator under 37 °C, 5% CO2. A total volume of 10 μL CCK-8 solution was delivered into each well of the plate. The plate was incubated for 1–4 h, and the light absorbance was measured at 450 nm using a microplate reader (BioTek-Synergy2). Cell viability (V) was evaluated by the formula: V = (Ad – A0) / (Av – A0) × 100%, where Ad and Av was the absorbance of DEPTAC-treated and vehicle-treated cells, respectively. A0 was the absorbance of wells with only culture medium and CCK8.

[4] = system: human tau (hTau); experiment: Western blotting of tau in primary neurons with hTau overexpression in the presence of MG132; format: cell-based
Protocol: Primary hippocampal neurons were prepared from E12–E15 days SD rat embryos. Briefly, pregnant rats were acutely executed, hippocampus was dissected on ice and gently minced in DME/F12 (Hyclone) then suspended in 0.125% (vol/vol) trypsin solution at 37 °C for 20 min. Enzymatic activity was stopped by fetal bovine serum. Neurons were initially kept in 10% FBS-containing DME/F12 for 4–6 h, and subsequently cultured in Neurobasal (Hyclone) with 2% B27, 1% glutamax and 1% penicillin–streptomycin (Thermo Fisher Scientific) in dishes pre-coated with 100 μg/mL poly-D-lysine. Serum was gradually removed by replacing half of the medium for each time within the following 2 days. Especially, to inhibit the proteasome-dependent proteolysis, the cultured hippocampal neurons were treated with 5 μM MG132 for 5 h before harvest.
Cultured cells or hippocampus tissues were collected on ice, and homogenized with RIPA lysis buffer containing 50 mM Tris-HCl, 100 mM NaCl, 1% Triton X-100, 5 mM EDTA, and 1:100 PMSF, and then centrifuged at 12,000 × g for 20 min. The supernatant was collected for the analysis of soluble proteins. In some experiments, the pellets were further incubated with 8% SDS buffer at 37 °C and then ultrasound for 60 times to reach a complete resuspension for the analysis of insoluble tau. Protein concentration was measured through BCA assays (Thermo Fisher). Equal amount of protein from each sample were separated in SDS-PAGE gels, and then transferred onto nitrocellulose or 0.22 μm polyvinylidene fluoride membranes (Merck Millipore). The membranes were blocked with 5% BSA, and incubated in turn with primary and horseradish peroxidase-conjugated secondary antibodies: pS199-Tau (44734G, Invitrogen, 1:2000), pT205-Tau (11108-1, Signalway, 1:2000), pS396-Tau (11102, Signalway, 1:2000), pS404-Tau (11112, Signalway, 1:2000), AT8 (MN1020, Thermo Fisher, 1:1000), Tau5 (ab80579, Abcam, 1:1000), Tau46 (T9450, Sigma, 1:1000), PP2A-Bα (4953, Cell signaling, 1:1000), Phospho-Ser/Thr (ab17464, Abcam1:1000), Ubiquitin (ab7254, Abcam, 1:1000), MAP2 (AB5622, Millipore, 1:2000), hTau-N368 (a generous gift from Prof. Keqiang Ye, Emory University School of Medicine, 1:1000), DEPTAC (developed by Daian Biotechnology, Wuhan, China, 1:500), β-actin (ab6276, Abcam, 1:2000). HRP-conjugated goat anti-rabbit IgG (A0208, Beyotime, 1:3000), HRP-conjugated goat anti-mouse IgG (A0216, Beyotime, 1:3000). Blots were visualized using ECL luminol reagent (P0018FS, Beyotime), and quantified using ImageJ software.

[5] = system: pS396-tau; experiment: pS396-tau immunostaining in the DG of Tau368 mice; format: in vivo, mouse; details: DEPTAC for a consecutive month after stopping dox; **p < 0.01, n = 4–5 mice
Protocol: as §1
Cultured neurons were fixed with 4% paraformaldehyde for 15 min. For animal experiments, mice were anesthetized with 1% pentobarbital sodium and intracardially perfused with normal saline followed by 4% paraformaldehyde (in 0.1 M phosphate buffer, pH 7.4). Mice brains were removed, post-fixed in 4% PFA for 12 h, and then cryoprotected in 20% and 30% sucrose solutions in turn. Fifty micrometer brain sections were sliced using a cryostat microtome (Leica). […]

[6] = 5 μM MG132 for 5 h before harvest, *p < 0.05, n = 3 cell wells

For “(1) YQQYQDATADEQG, originates from the porcine β-tubulin 422–434 for recognizing and binding tau proteins.[5],[6] (2) GSGS, a linker for increasing the flexibility of the peptide.[15] (3) KKVAVVRTPPKSP, for recruiting PP2A-Bα,[16] and (4) RRRRRRRR [DEPTAC, DEPhosphorylation TArgeting Chimera; 38 amino acid residues, C185H314N72O56]”, the “neuron penetrability in vivo” value [1] was “high neuron penetrability”, the “brain-blood barrier (BBB) penetrating efficiency” value [2] was “limited” and the “cytotoxicity (CCK8)” value [3] was “No cytotoxicity”. For the same substance, the “efficiency of tau dephosphorylation in the presence of MG132” value ([4]; 5 μM MG132, compared with absence of MG132, n = 3 cell wells) was “reduced efficiency; also recorded: less efficiency”, the “reduction of total tau (Tau5 and Tau46) in the presence of MG132” value ([4]; 5 μM MG132 for 5 h before harvest) was “abolished” and the “tau dephosphorylation at AT8 epitope in the presence of MG132” value [4, 6] was “still significant”. For the same substance, the “tau dephosphorylation at pT205 in the presence of MG132” value [4, 6] was “still significant” and the “level of pS396-tau immunostaining in the DG” value [5] was “ameliorated”.
